Where two headings read alike, the source gives them in different places.
Test system: Mortierella elongata AG77
Assay: Carbon source utilisation in Biolog 96-well plates, formazan formation after tetrazolium addition
Assay type: cell-based
Conditions: for Metabolized: Metabolized = more formazan formation than a control containing no carbon source, observed visually at 2 h, 24 h, 148 h; for Carbon sources that Mortierella elongata AG77 can metabolize: summary of Table 3
Protocol: Two 300 mL volumes of growth medium comprising 1 g/L KH2PO4, 1 g/L MgSO4 7H2O, 0.1 g/L CaCl2, 0.02 g/L FeNaEDTA, 0.1 g/L NaCl, and either 1 g/L NH4NO3 or 20 g/L sucrose were prepared. Acidity was adjusted to 5.5 using NaOH and volumes of growth medium were autoclaved 30 min at 121° C. to sterilize. Aliquots of 200 μL of carbon-free medium or nitrogen-free medium were pipetted into each well of a set of 96-well plates previously prepared with lyophilized putative carbon or nitrogen sources (Biolog Inc., Hayward, Calif.). Inocula were prepared by perforating a culture of Mortierella elongata AG77 grown on 20 g/L potato dextrose agar with a 3 mm diameter cork borer and separating the surface mycelial mat from the solid growth medium using tweezers. Each well was inoculated with one inoculum. Cultures were incubated at 21° C. for 24 hours to allow metabolic changes to stabilize, and then 100 μL of 3 g/L tetrazolium chloride in water was added to each well. Formazan formation was observed visually at 2 h, 24 h, and 148 h.
Conclusions were based on rate and intensity of formazan formation using the 3-4,5-dimethylthiazol-2-yl)-2,5-diphenyltetrazolium bromide (MTT) assay. “Metabolized” indicates more formazan formation than a control containing no carbon source, and “Toxic” indicates less formazan formation than a control containing no carbon source. “Metabolized” and “Toxic” assignments are mutually exclusive. In this example, a compound may be “Metabolized” or “Toxic,” but not both.

[1] = compound as carbon source, Toxic = less formazan formation than a control containing no carbon source

Molecule | Metabolized (compound as carbon source) | Toxic [1] | Toxic | Carbon sources that Mortierella elongata AG77 can metabolize
O=C1CCC(C(=O)O)O1 (stereo not drawn) [α-Hydroxy Glutaric Acid-γ-Lactone] | no | no | – | –
O=C(O)CC(Br)C(=O)O (stereo not drawn) [Bromo Succinic Acid] | no | no | – | –
Dextrin | – | – | no | –
O=C(O)[C@@H](O)[C@@H](O)[C@H](O)[C@@H](O)C(=O)O [D-Saccharic Acid] | no | – | no | –
CC(=O)C(C)=O [2,3-Butanedione] | no | no | – | –
O=CC(=O)O [Glyoxylic Acid] | no | – | – | –
O=CC[C@H](O)[C@H](O)CO [2-Deoxy-D-Ribose] | no | – | no | –
OC[C@@H](O)[C@@H](O)[C@H](O)[C@@H](O)CO [D-Sorbitol] | yes | – | no | can metabolize
O=C(O)CCC(=O)O [Succinic Acid] | no | – | no | –
C[N+](C)(C)CC(O)CC(=O)[O-] (racemic) [D,L-Carnitine] | yes | no | – | can metabolize
O=C(O)CCC(=O)C(=O)O [α-Keto-Glutaric Acid] | – | no | – | –
CCC(C)N (stereo not drawn) [Sec-Butylamine] | no | no | – | –
O=C(O)[C@]1(O)C[C@@H](O)[C@@H](O)[C@H](O)C1 [Quinic Acid] | no | – | no | –
O=C(O)CC(=O)O [Malonic Acid] | no | – | – | –
Gelatin | – | – | no | –
O=C1O[C@H](CO)[C@@H](O)[C@H]1O [D-Ribono-1,4-Lactone] | no | no | – | –
CC(=O)N[C@@H](CO)[C@@H](O)[C@H](O)[C@H](O)CO [N-Acetyl-D-Glucosaminitol] | no | no | – | –
O=C(O)[C@@H](O)[C@H](O)C(=O)O [D-Tartaric Acid] | no | – | – | –
O=C(O)/C=C/C(=O)O [Fumaric Acid] | yes | – | no | can metabolize
OC[C@H]1O[C@H](O[C@H]2[C@H](O)[C@@H](O)[C@H](O)O[C@@H]2CO)[C@H](O)[C@@H](O)[C@@H]1O [Maltose] | yes | – | – | can metabolize
OC[C@H]1O[C@@H](O)[C@H](O)[C@H](O)[C@@H]1O [β-D-Allose] | no | – | no | –
O=C(O)[C@H](O)[C@@H](O)[C@H](O)[C@H](O)CO [D-Gluconic Acid] | no | no | – | –

Molecule | Metabolized (compound as carbon source) | Toxic [1] | Toxic | Carbon sources that Mortierella elongata AG77 can metabolize
C[C@H](O)[C@@H](N)C(=O)O [D-Threonine] | yes | – | no | can metabolize
OC[C@@H](O)[C@@H](O[C@@H]1O[C@H](CO)[C@H](O)[C@H](O)[C@H]1O)[C@H](O)[C@@H](O)CO [Lactitol] | no | – | no | –
COC(=O)[C@@H](C)O [D-Lactic Acid Methyl Ester] | yes | no | – | can metabolize
O=C(O)C[C@H](O)C(=O)O [L-Malic Acid] | no | no | – | –
CCC(=O)C(=O)O [α-Keto-Butyric Acid] | no | no | – | –
O=C[C@H](O)[C@@H](O)[C@@H](O)[C@H](O)C(=O)O [D-Galacturonic Acid] | no | – | no | –
C/C(=C/C(=O)O)C(=O)O [Citraconic Acid] | no | – | no | –
Laminarin | – | – | no | –
C/C=C/C=C/C(=O)O [Sorbic Acid] | no | – | no | –
Maltotriose | yes | no | – | can metabolize
OC[C@@H](O)[C@@H](O)[C@@H](O)CO [Adonitol] | no | – | no | –
O=C1O[C@@H]([C@H](O)CO)[C@H](O)[C@H]1O [D-Galactonic Acid-γ-Lactone] | yes | no | – | can metabolize
O=C(O)Cc1ccc(O)cc1 [p-Hydroxy Phenyl Acetic Acid] | no | no | – | –
O=C[C@@H](O)[C@H](O)[C@H](O)CO [D-Arabinose] | no | – | no | –
O=C[C@H](O)[C@H](O)[C@@H](O)CO [L-Lyxose] | no | – | no | –
OC[C@H]1O[C@H](O[C@H]2O[C@H](CO)[C@@H](O)[C@H](O)[C@H]2O)[C@H](O)[C@@H](O)[C@@H]1O [D-Trehalose] | yes | no | – | can metabolize
CC(=O)O [Acetic Acid] | no | – | – | –
O=C(O)CC(CC(=O)O)C(=O)O [Tricarballylic Acid] | yes | – | no | can metabolize
Tween 20 | yes | no | – | can metabolize
O=C(CO)[C@@H](O[C@H]1O[C@H](CO)[C@@H](O)[C@H](O)[C@H]1O)[C@H](O)[C@H](O)CO [Turanose] | no | no | – | –
CC(=O)N[C@H]1[C@@H](O)[C@H](O)[C@@H](CO)O[C@H]1O [N-Acetyl-β-D-Mannosamine] | yes | no | – | can metabolize
N[C@@H](C(=O)O)[C@@H](O)[C@H](O)[C@H](O)CO [D-Glucosaminic Acid] | yes | no | – | can metabolize

Molecule | Metabolized (compound as carbon source) | Toxic [1] | Toxic | Carbon sources that Mortierella elongata AG77 can metabolize
OC[C@H]1O[C@H](OC[C@H]2O[C@H](O[C@]3(CO)O[C@H](CO)[C@@H](O)[C@@H]3O)[C@H](O)[C@@H](O)[C@@H]2O)[C@H](O)[C@@H](O)[C@H]1O [D-Raffinose] | yes | – | no | can metabolize
O=C(O)C(O)C(O)C(=O)O (stereo not drawn) [m-Tartaric Acid] | yes | – | – | can metabolize
C[C@H](N)C(N)=O [L-Alaninamide] | yes | no | – | can metabolize
O=C[C@H](O)[C@@H](O)[C@@H](O)CO [L-Arabinose] | no | – | no | –
CC(O)(CC(=O)O)C(=O)O (stereo not drawn) [Citramalic Acid] | no | – | no | –
C=C(CC(=O)O)C(=O)O [Itaconic Acid] | no | no | – | –
O=C(CO)[C@@H](O)[C@H](O)[C@H](O)COP(=O)(O)O [D-Fructose-6-Phosphate] | yes | no | – | can metabolize
OC[C@H]1O[C@H](OCC2O[C@@H](O)[C@H](O)[C@@H](O)[C@@H]2O)[C@H](O)[C@@H](O)[C@H]1O (stereo partly drawn) [D-Melibiose] | no | no | – | –
OC[C@H]1O[C@@H](O[C@H]2[C@H](O)[C@@H](O)[C@@H](O)O[C@@H]2CO)[C@H](O)[C@@H](O)[C@H]1O [α-D-Lactose] | no | – | – | –
CO[C@@H]1O[C@H](CO)[C@@H](O)[C@H](O)[C@H]1O [β-Methyl-D-Glucoside] | no | no | – | –
OC[C@H]1O[C@@H](O[C@@H]2[C@@H](CO)OC(O)(CO)[C@H]2O)[C@H](O)[C@@H](O)[C@H]1O (mixture of isomers) [Lactulose] | no | – | no | –
O=C(O)C(=O)C(C(=O)O)C(O)C(=O)O (stereo not drawn) [Oxalomalic Acid] | no | – | no | –
O=C(O)Cc1cccc(O)c1 [m-Hydroxy Phenyl Acetic Acid] | no | no | – | –
COC1OCC(O)C(O)C1O [β-Methyl-D-Xyloside] | no | no | – | –
OC[C@@H](O)[C@@H](O)CO [i-Erythritol] | no | no | – | –
COC(=O)CCC(=O)O [Mono Methyl Succinate] | – | – | no | –
CC(=O)N[C@H]1[C@H]([C@H](O)[C@H](O)CO)OC(O)(C(=O)O)C[C@@H]1O (stereo partly drawn) [N-Acetyl-Neuraminic Acid] | yes | no | – | can metabolize
O=CO [Formic Acid] | no | no | – | –
O=C[C@H](O)[C@@H](O)[C@H](O)[C@H](O)C(=O)O [D-Glucuronic Acid] | yes | – | no | can metabolize
O=C(O)CC(O)C(=O)O (racemic) [D,L-Malic Acid] | no | no | – | –

Source: US20200325505A1, “FILAMENTOUS FUNGI CAPABLE OF PRODUCING VERY LONG CHAIN FATTY ACIDS” (UT-Battelle, LLC, priority 2019, published 2020)
